Source: patent EP2204099A1, “Methods for producing pure amino acid chelate complexes, and uses thereof” (Viva Pharmaceuticals Inc., priority 2008, dated 2010)

How the values were obtained:
[1] = tested on: CTX-induced immunodeficient mice; assay: Serum hemolysin test in CTX-induced immunodeficient mice; format: in vivo; details: 17 mg/kg per os; SRBC-immunized; CTX 50 mg/kg i.p.; x±sd, n=10
Protocol: A total of 70 mice were divided into […] treatment groups: Vehicle; CTX (cyclophosphamide) + Vehicle; CTX+Zinc Sulphate (17mg mg/kg); CTX+Zinc chelate (Zn:[…]:[…]) (57 mg/kg); CTX+Zinc chelate (Zn:[…]:[…]) (114 mg/kg); CTX+Zinc chelate (Zn:[…]:[…]) (228 mg/kg); CTX+Zinc chelate (Zn:[…]:[…]) (456 mg/kg). The mice were administrated per os at least 16 days before experimentation. After 8 days of drug or vehicle administration, all mice were immunized with an intraperitioneal injection of 0.2 ml of 20% SRBC (sheep red blood cell) in saline. CTX was given intraperitoneal injection at the dose of 50 mg/kg every day for 4 days after 9 days of drug administration. Sixty minutes after the last drug administration, blood was collected by retroorbital venous plexus puncture, and then centrifuged (2000 r/min 5 min). Sheep red cell suspension 0.5 ml (5% sheep red cell in saline) was added to 1 ml diluted sera (1:500 dilution with saline), followed by 1 ml diluted guinea pig plasma (10% plasma in saline) in sequence. For negative controls, the durg waqs substituted with saline. The samples and controls were incubated for 10 min at 37°C, and then immersed in an ice-water bath (0°C) to stop the reaction. […] The absorbance for each tube was recorded and the 50% hemolytic dose (HC50) was calculated as follows: Sample HC50 = sample absorbance 50% hemolytic absorbance x dilution factors.

[2] = tested on: CTX-induced immunodeficient mice; assay: Clearance of charcoal particles (carbon clearance test) in CTX-induced immunodeficient mice; format: in vivo; details: 17 mg/kg per os; CTX 50 mg/kg i.p.; x±sd, n=10
Protocol: A total of 70 mice were divided into 7 treatment groups: Vehicle; CTX (cyclophosphamide) + Vehicle; CTX+ZnSO4 (17mg mg/kg); CTX+Zinc chelate (Zn:2Asp:2Lys) (57 mg/kg); CTX+Zinc chelate (Zn:2Asp:2Lys) (114 mg/kg); CTX+Zinc chelate (Zn:2Asp:2Lys) (228 mg/kg); and CTX+Zinc chelate (Zn:2Asp:2Lys) (456 mg/kg). The mice were administrated per os at least 16 days before experimentation. CTX was given as an intraperitoneal injection at the dose of 50 mg/kg every day for 4 days after 9 days of drug administration.
Sixty minutes after the last drug administration, mice were injected with 1:3 diluted Indian ink 10 ml/kg. At 1 min (T1) and 11 min (T2), bold 40µl was taken from retroocular venous plexus and resolved in 0.1 % Na2CO3 solution 4 ml. The absorbance (OD) was measured at 600 nm by a 721 spectrophotometer. The clearance rate K and clearance index a were calculated: K = (lgOD1-lgOD2)/T2 -T1 [formula] α = K^(1/3) × W/(liver weight+spleen weight) [formula] (W: weight of mouse)

Zinc Sulphate
HC50 (serum hemolysin) [1]: 141.7±29.5
α (clearance index) [2]: 4.2988±1.4347
